Source: patent US20100190797A1, “C[…] OF ZOPICLONE, PROCESSES FOR THEIR PREPARATION AND THEIR PHARMACEUTICAL COMPOSITIONS” (CIPLA LTD., priority 2007, published 2010)

What was measured:
[1] = background statement; Form A gets converted into dihydrate Form B; cited from earlier work
[2] = Stability of crystalline polymorphic forms of Zopiclone (conversion to hydrate form); conditions: conversion to more stable hydrate form of Zopiclone
[3] = Hygroscopicity on exposure to air; type: physicochemical; conditions: does not capture moisture even on exposure to air

| Compound | stability of the known crystalline form [1] | thermodynamic stability of the crystalline form [2] | hygroscopicity [3] |
| --- | --- | --- | --- |
| CN1CCN(C(=O)OC2c3nccnc3C(=O)N2c2ccc(Cl)cn2)CC1 (centres unmarked) [Form B, Zopiclone] | thermodynamically stable | – | – |
| CN1CCN(C(=O)OC2c3nccnc3C(=O)N2c2ccc(Cl)cn2)CC1 (centres unmarked) [Form C, Zopiclone] | – | thermodynamically unstable | – |
| CN1CCN(C(=O)OC2c3nccnc3C(=O)N2c2ccc(Cl)cn2)CC1 (centres unmarked) [Zopiclone Form A, Zopiclone] | unstable | – | – |
| CN1CCN(C(=O)OC2c3nccnc3C(=O)N2c2ccc(Cl)cn2)CC1 (centres unmarked) [Zopiclone Form D, Zopiclone] | – | stable | non-hygroscopic |
